Columns and labels:
[1] = target: T1, VCB/PROTAC/BCL-2 ternary complex (Homo sapiens, UniProt P10415+P40337); assay: AlphaLISA ternary complex assay VCB/PROTAC/BCL-2; type: binding; settings: cell-free AlphaLISA
T1 construct: BCL-xL (aa 2-212) and BCL-2 (aa 1-207) transformed cells were grown in LB broth; GST (on the VCB complex); made in house; host or cells: E. coli BL21 (DE3) codon plus (stated for the BCL-2 construct)
Protocol: (§1) Assays were performed at room temperature. All reagents were diluted in assay buffer of 25 mM HEPES, pH 7.5, 150 mM NaCl, 0.1% BSA, and 0.005% tween 20. To a 96-well PCR plate (VWR, Cat. No. 82006-636) were added 10 μL self-made 6×His tagged BCL-xL (100 nM) or BCL-2 (150 nM), 10 μL series diluted compounds solution (4× dilution) and 10 μL of self-made GST-VCB (100 nM). After incubating at room temperature for 15 min, 5 µL of alpha glutathione-donor beads (160 μg/mL, PerkinElmer, Cat. No. 6765300) and 5 µL of anti-6×His acceptor beads (160 μg/mL, PerkinElmer, Cat. No. AL128M) to each well and incubated for additional 45 min in the dark before being transferred to two adjacent wells (17 µL each) of 384-well white OptiPlate (PerkinElmer, Cat. No. 6008280). The luminescence signal was detected on a Biotek’s Synergy Neo2 multimode plate reader installed with an AphaScreen filter cube. Intensity values were plotted in Graphpad Prism (9.2.0) with PROTAC concentration values represented on a log10 scale.

Jurkat cells = assay: Viability (MTS) assay in Jurkat cells; type: cell-based, human; settings: 72 h
Protocol: For the viability assays in Jurkat cells, the cells in complete cell culture medium were seeded in 96-well plates (100 µl per well) at the optimized densities (50,000 cells). Compound treatments were prepared in complete cell culture medium and 100 µl of 2× treatment-containing medium were added to each well. Complete cell culture medium without treatment was added in control wells, and wells containing medium without cells served as background. The outer wells of the 96-well plate were not used for treatment and were filled with 250 µl of PBS to reduce evaporation of medium from inner wells. Each compound and/or combination was tested at nine different concentrations with three replicates. The cell viability was measured after 72 h by tetrazolium-based MTS assay. […] The cells were incubated for 4 h at 37 °C and 5% CO2, and then the absorbance was recorded at 490 nm using Biotek’s Synergy Neo2 multimode plate reader (Biotek). The average absorbance value of background wells was subtracted from absorbance value of each control and treatment well, and percent cell viability ((At/A0) × 100) was determined in each treatment well, where At is the absorbance value of the treatment well and A0 is the average absorbance value of control wells after background subtraction. […]

[2] = target: T2, VCB/PROTAC/BCL-xL ternary complex (Homo sapiens, UniProt P40337+Q07817); assay: AlphaLISA ternary complex assay VCB/PROTAC/BCL-xL; type: binding; settings: cell-free AlphaLISA
T2 construct: BCL-xL (aa 2-212) and BCL-2 (aa 1-207) transformed cells were grown in LB broth; SMT3 (N); GST (on the VCB complex); made in house; host or cells: E. coli BL21 (DE3) codon plus (stated for the BCL-xL construct)
Protocol: as §1

BCL-2 E114A Q118A = target: T3, BCL-2 E114A Q118A (Homo sapiens, UniProt P10415, E114A/Q118A); assay: AlphaScreen binary binding, BCL-2 E114A Q118A; settings: mean ± s.d., n=3
T3 construct: BCL-xL (aa 2-212) and BCL-2 (aa 1-207) transformed cells were grown in LB broth; made in house; host or cells: E. coli BL21 (DE3) codon plus
Protocol: (§2) To test the binary/ternary binding affinities of compounds to BCL-2/BCL-xL, AlphaScreen displacement binding assay was performed to test the capabilities of testing compounds to displace a Biotin-tagged Bim (Biotin-[…]) or Bad (Biotin-[…]) from BCL-2 or BCL-xL for BCL-2 and BCL-xL binding affinities, respectively. All reagents were diluted in assay buffer of 25 mM HEPES, pH 7.5, 150 mM NaCl, 0.1% BSA, and 0.005% tween 20 prior incubation. To a 96-well PCR plate (VWR, Cat. No. 82006-636) was added 10 μL Biotin-tagged Bim (15 nM for WT or 50 nM for mutants) or Bad (15 nM for WT or 50 nM for mutants), 10 μL series diluted compounds solution (2 or 3 or 4× dilution), and 10 μL self-made 6×His tagged BCL-2 WT or mutants (25 nM WT or 50 nM mutants) or 10 μL self-made BCL-xL WT and mutants (10 nM WT or 50 nM mutants). […] The luminescence signal was detected on a Biotek’s Synergy Neo2 multimode plate reader installed with an AphaScreen filter cube. The Ki values of each compounds were calculated by fitting data into the “Binding-competitive, One site-Fit Ki” function in GraphPad Prism (9.2.0) based on concentrations of Biotin–peptide used and experimentally determined Kd values of each 6×His protein &&&and Biotin–Peptide pair.

[3] = system: H146 small cell lung cancer cells; assay: Cytotoxicity in H146 SCLC cells in vitro; type: cell-based; settings: Figure R4
BCL-2 R110A = target: T4, BCL-2 R110A (Homo sapiens, UniProt P10415, R110A); assay: AlphaScreen binary binding, BCL-2 R110A; settings: mean ± s.d., n=3
T4 construct: BCL-xL (aa 2-212) and BCL-2 (aa 1-207) transformed cells were grown in LB broth; made in house; host or cells: E. coli BL21 (DE3) codon plus
Protocol: as §2

T1 sequence (Q15370 whole entry, the tested form may be a part): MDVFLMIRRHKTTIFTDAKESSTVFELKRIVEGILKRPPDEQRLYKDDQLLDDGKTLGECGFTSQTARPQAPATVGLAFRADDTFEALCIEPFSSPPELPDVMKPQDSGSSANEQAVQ
T1 sequence (Q15369 17-112, further chain): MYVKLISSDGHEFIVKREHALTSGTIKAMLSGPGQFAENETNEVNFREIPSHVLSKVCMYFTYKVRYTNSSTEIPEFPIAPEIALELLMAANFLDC
T1 sequence (P40337 54-213): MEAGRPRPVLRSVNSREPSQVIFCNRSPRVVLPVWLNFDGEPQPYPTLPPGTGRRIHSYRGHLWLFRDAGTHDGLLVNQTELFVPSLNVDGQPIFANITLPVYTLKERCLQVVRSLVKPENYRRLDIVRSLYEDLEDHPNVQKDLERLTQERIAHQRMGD
T1 sequence (P10415 1-207): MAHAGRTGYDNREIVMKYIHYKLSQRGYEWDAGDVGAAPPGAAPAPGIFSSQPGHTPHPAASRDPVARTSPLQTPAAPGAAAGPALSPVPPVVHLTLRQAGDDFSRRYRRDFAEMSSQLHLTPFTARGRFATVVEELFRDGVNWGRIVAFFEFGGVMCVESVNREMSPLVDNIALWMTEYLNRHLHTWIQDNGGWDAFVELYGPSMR
T3 sequence (P10415 1-207 E114A/Q118A): as the sequence (P10415 1-207) above, with E114A, Q118A counted along it
T4 sequence (P10415 1-207 R110A): as the sequence (P10415 1-207) above, with R110A counted along it
T2 sequence (Q15369 17-112): as the sequence (Q15369 17-112, further chain) above
T2 sequence (Q07817 2-212): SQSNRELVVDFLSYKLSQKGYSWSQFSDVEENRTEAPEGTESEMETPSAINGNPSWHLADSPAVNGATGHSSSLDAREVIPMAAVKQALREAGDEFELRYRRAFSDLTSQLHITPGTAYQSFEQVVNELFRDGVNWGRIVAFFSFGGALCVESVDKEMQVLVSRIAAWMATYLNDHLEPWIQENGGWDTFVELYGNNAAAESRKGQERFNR
T2 sequence (Q15370 whole entry, further chain, the tested form may be a part): as the sequence (Q15370 whole entry, the tested form may be a part) above
T2 sequence (P40337 54-213): as the sequence (P40337 54-213) above

Cc1ncsc1-c1ccc([C@H](C)NC(=O)[C@@H]2C[C@@H](O)CN2C(=O)[C@@H](NC(=O)CN2CCN(CC(=O)N3CCN(C[C@]4(C)CCC(c5ccc(Cl)cc5)=C(CN5CCN(c6ccc(C(=O)NS(=O)(=O)c7ccc(N[C@H](CCN8C[C@@H]9C[C@H]8CO9)CSc8ccccc8)c(S(=O)(=O)C(F)(F)F)c7)cc6)CC5)C4)CC3)CC2)C(C)(C)C)cc1 [WH244]
Ternary complex formation with BCL-2 (comparison with 753b) [1]: tighter complex
Potency in killing Jurkat cells (comparison) (Jurkat cells): outperformed 753b, DT2216, and ABT263
Ternary complex formation with BCL-xL (comparison with 753b) [2]: tighter complex
Ki (BCL-2 E114A Q118A): 9.6 ± 0.7 nM
Potency against H146 cells (comparison with ABT263, DT2216, 753b) [3]: most potent
Ki (BCL-2 R110A): 8 ± 1.2 nM
